Structures can show the parent of a compound that is named as a salt. Where two headings read alike, the source gives them in different places.

The test has as its target PAI-1 (Homo sapiens, UniProt P05121). The experiment in a line: biochemical. Conditions: for inhibition at 6.25 µM / inhibition at 12.5 µM / inhibition at 25 µM / inhibition at 50 µM / inhibition at 100 µM / inhibition at 20 µM: read-out: Degree of inhibition in PAI chromogenic substrate assay.
Where [1] appears, read: PAI chromogenic substrate assay, read-out: IC50.

Chain of PAI-1 (P05121 24-402): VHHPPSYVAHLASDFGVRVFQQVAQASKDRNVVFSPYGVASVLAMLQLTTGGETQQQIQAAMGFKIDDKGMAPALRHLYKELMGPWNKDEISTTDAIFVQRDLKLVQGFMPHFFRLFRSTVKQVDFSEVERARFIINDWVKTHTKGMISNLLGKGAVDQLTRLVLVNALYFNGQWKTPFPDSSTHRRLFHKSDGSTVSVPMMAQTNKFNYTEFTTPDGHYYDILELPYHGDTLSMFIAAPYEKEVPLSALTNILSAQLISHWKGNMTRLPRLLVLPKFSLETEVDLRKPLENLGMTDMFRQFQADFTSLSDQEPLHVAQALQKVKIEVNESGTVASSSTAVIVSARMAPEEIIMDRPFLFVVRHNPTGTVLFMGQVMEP
Description: In this assay, a compound is incubated with PAI-1 prior to addition to the tPA assay system. Inhibition of PAI-1 results in the production of plasmin from plasminogen. In turn, plasmin cleaves the chromogenic substrate S2251 (Kabi Vitrum) producing pNA (p-nitroaniline) which is detected spectrophotometrically at 405 nm (K. Nilsson et al, Fibrinolysis (1987) 1, 163-168).
Compounds of formula (A) were tested in a PAI chromogenic substrate assay. In the assay (K.Nilsson, Fibrinolysis (1987) 1, 163-168) each compound was incubated with PAI-1 prior to addition to the tPA assay system. […] In turn, the plasmin cleaved the chromogenic substrate S2251 (Kabi-Vitrum) producing pNA (p-nitroaniline) which was detected spectrophotometrically at 405 nm.

Usually inhibition stands for how much of the control response was suppressed. On to `CCCCOc1ccc(/C=c2\[nH]c(=O)/c(=C/c3ccc(OCCCN(C)C)cc3)[nH]c2=O)cc1` [Compound 1920, (3Z,6Z)-3-(4-Butoxybenzylidene)-6-(4-(3-dimethylaminopropoxy)benzylidene)-2,5-piperazinedione], for which, for the setting “6.25 μM”, the inhibition at 6.25 µM came out at 33%. For the same compound, the inhibition at 12.5 µM (12.5 μM) is 50%. Further, the inhibition at 25 µM (25 μM) came out at 57%. In addition, the inhibition at 50 µM (50 μM) was found to be 66%. Moreover, the inhibition at 100 µM (100 μM) turned out to be 68%.

Regarding `CN(C)CCOc1ccc(/C=c2\[nH]c(=O)/c(=C/c3c(Cl)cccc3Cl)[nH]c2=O)cc1` [Compound 1952], the inhibition at 6.25 µM (6.25 μM) was 0%. This compound also showed a Degree of inhibition in PAI chromogenic substrate assay (12.5 μM) of 1% and a Degree of inhibition in PAI chromogenic substrate assay (25 μM) of 19%. Also, the inhibition at 50 µM (50 μM) turned out to be 37%. The inhibition at 100 µM (100 μM) was determined as 63%.

One may read the IC50 as the concentration that gives 50% inhibition. On to `Cc1ccc(/C=c2\[nH]c(=O)/c(=C/c3ccc(OCCCN(C)C)cc3)[nH]c2=O)cc1` [Compound 5235, (3Z,6Z)-3-(4-(3-Dimethylaminopropoxy)benzylidene)-6-(4-methylbenzylidene)-2,5-piperazinedione], for which the IC50 under setting [1] stood at 6 µM.

Consider `CCCCCCC(=O)Oc1ccc(/C=c2\[nH]c(=O)/c(=C/c3ccc(OC)cc3)[nH]c2=O)cc1` [Compound 1887, (3Z,6Z)-3-(4-Heptanoyloxybenzylidene)-6-(4-methoxybenzylidene)-2,5-piperazinedione], for which the inhibition at 6.25 µM (6.25 μM) turned out to be 0%. For the same compound, the inhibition at 12.5 µM (12.5 μM) amounted to 5%. The inhibition at 25 µM (25 μM) came out at 24%. Further, the inhibition at 50 µM (50 μM) is 46%. The inhibition at 100 µM (100 μM) turned out to be 83%.

In the case of `CN(C)CCCOc1ccc(/C=c2\[nH]c(=O)/c(=C/c3ccc(C(=O)NCCCCc4ccccc4)cc3)[nH]c2=O)cc1` [Compound 5347, N-(4-Phenylbutyl)-4-((3Z,6Z)-6-(4-(3-Dimethylaminopropoxy)benzylidene)-2,5-dioxo-3-piperazinylidene)methylbenzamide], the inhibition at 20 µM (20 μM (third part of Table 1)) came out at 39%.

Take `CN(C)CCCOc1ccc(/C=c2\[nH]c(=O)/c(=C/c3cc([N+](=O)[O-])cc([N+](=O)[O-])c3)[nH]c2=O)cc1` [Compound 5378, (3Z,6Z)-6-(4-(3-Dimethylaminopropoxy)benzylidene)-3-(3,5-dinitrobenzylidene)-2,5-piperazinedione]: the inhibition at 20 µM is 50%. The compound further registered a half-maximal inhibitory concentration (IC50) (IC50, PAI chromogenic substrate assay) of 20 µM.

As to `CCCCCCOc1ccc(/C=c2\[nH]c(=O)/c(=C/c3ccc(OC)cc3)[nH]c2=O)cc1` [Compound 1907, (3Z,6Z)-3-(4-Hexyloxybenzylidene)-6-(4-methoxybenzylidene)-2,5-piperazinedione], the inhibition at 6.25 µM (6.25 μM) was found to be 10%. For the same compound, under “12.5 μM”, the inhibition at 12.5 µM was 23%. Moreover, for the setting “25 μM”, the inhibition at 25 µM is 37%. Moreover, the inhibition at 50 µM (50 μM) stood at 69%. In addition, the inhibition at 100 µM (100 μM) worked out at 80%.

Regarding `CN(C)CCCOc1ccc(/C=c2\[nH]c(=O)/c(=C/c3cccc([N+](=O)[O-])c3)[nH]c2=O)cc1` [Compound 5209, (3Z,6Z)-6-(4-(3-Dimethylaminopropoxy)benzylidene)-3-(3-nitrobenzylidene)-2,5-piperazinedione], under setting [1], the IC50 amounted to 1.4 µM.

On to `CN(C)CCOc1ccccc1/C=c1\[nH]c(=O)/c(=C/c2ccccc2)[nH]c1=O` [Compound 1979, (3Z,6Z)-Benzylidene-3-(2-(2-dimethylaminoethoxy)benzylidene)-2,5-piperazinedione], for which the inhibition at 6.25 µM (6.25 μM) came to 0%. The compound further returned a Degree of inhibition in PAI chromogenic substrate assay (100 μM) of 37%.

Turning to `CN(C)CCCOc1ccc(/C=c2\[nH]c(=O)/c(=C/c3ccc(F)cc3)[nH]c2=O)cc1` [Compound 5365.HCl, (3Z,6Z)-3-(4-(3-Dimethylaminopropoxy)benzylidene)-6-(4-fluorobenzylidene)-2,5-piperazinedione], the IC50 under setting [1] turned out to be 3.3 µM.

Turning to `CN(C)CCCOc1ccc(/C=c2\[nH]c(=O)/c(=C/c3ccc(Cl)cc3)[nH]c2=O)cc1` [Compound 5233], for the setting “20 μM (third part of Table 1)”, the inhibition at 20 µM was 47%. The inhibition at 100 µM (100 μM (third part of Table 1)) is 50%. In addition, the 50% inhibitory concentration (IC50) under setting [1] turned out to be 2.5 µM.

As to `CN(C)CCCOc1ccc(/C=c2\[nH]c(=O)/c(=C/c3ccc(C(=O)NCCCc4ccccc4)cc3)[nH]c2=O)cc1` [Compound 5346, N-(3-Phenylpropyl)-4-((3Z,6Z)-6-(4-(3-Dimethylaminopropoxy)benzylidene)-2,5-dioxo-3-piperazinylidene)methylbenzamide], the inhibition at 20 µM (20 μM (third part of Table 1)) stood at 15%.

Turning to `COC(=O)c1ccc(/C=c2\[nH]c(=O)/c(=C/c3ccc(OCCCN(C)C)cc3)[nH]c2=O)cc1` [Compound 5401, Methyl 4((3Z,6Z)-6-(4-(3-Dimethylaminopropoxy)benzylidene)-2,5-dioxo-3-piperazinylidene)methylbenzoate], the inhibition at 20 µM (20 μM (third part of Table 1)) is 42%.

Consider `CN(C)CCOc1ccc(/C=c2\[nH]c(=O)/c(=C/c3ccccc3)[nH]c2=O)cc1` [Compound 1924, (3Z,6Z)-3-Benzylidene-6-(4-(2-dimethylaminoethoxy)benzylidene)-2,5-piperazinedione], for which the Degree of inhibition in PAI chromogenic substrate assay runs as follows: (6.25 μM) 9%; (12.5 μM) 7%; (25 μM) 18%; (50 μM) 38%; (100 μM) 64%.

For the compound `CN(C)CCCOc1ccc(/C=c2\[nH]c(=O)/c(=C/c3cc(Cl)cc(Cl)c3)[nH]c2=O)cc1` [Compound 5380, (3Z,6Z)-3-(3,5-Dichlorobenzylidene)-6-(4-(3-dimethylaminopropoxy)benzylidene)-2,5-piperazinedione], the IC50 under setting [1] turned out to be 15 µM.

For `CC(=O)Nc1ccccc1/C=c1\[nH]c(=O)/c(=C/c2ccc(OCCCN(C)C)cc2)[nH]c1=O` [Compound 5248], where the note is “100 μM (third part of Table 1)”, the inhibition at 100 µM is 10%.

With `CN(C)CCCOc1ccc(/C=c2\[nH]c(=O)/c(=C/c3cccc(Br)c3)[nH]c2=O)cc1` [Compound 5375, (3Z,6Z)-3-(3-Bromobenzylidene)-6-(4-(3-dimethylaminopropoxy)benzylidene)-2,5-piperazinedione], the IC50 under setting [1] was 4.5 µM.

With `CN(C)CCCOc1ccc(/C=c2\[nH]c(=O)/c(=C/c3ccccc3Cl)[nH]c2=O)cc1` [Compound 5249, (3Z,6Z)-3-(2-Chlorobenzylidene)-6-(4-(3-dimethylaminopropoxy)benzylidene)-2,5-piperazinedione], the inhibition at 20 µM (20 μM (third part of Table 1)) was 10%. Where the note is “100 μM (third part of Table 1)”, the inhibition at 100 µM amounted to 55%.

With `CN(C)CCCOc1ccc(/C=c2\[nH]c(=O)/c(=C/c3ccc(N(C)C)cc3)[nH]c2=O)cc1` [Compound 5068.HCl, (3Z,6Z)-3-(4-Dimethylaminobenzylidene)-6-(4-(3-dimethylaminopropoxy)benzylidene)-2,5-piperazinedione], where the note is “20 μM (third part of Table 1)”, the inhibition at 20 µM turned out to be 81%. Under “50 μM (third part of Table 1)”, the inhibition at 50 µM amounted to 76%. The inhibition at 100 µM (100 μM (third part of Table 1)) came to 75%.

As for `CN(C)CCCOc1ccc(/C=c2\[nH]c(=O)/c(=C/c3ccccc3[N+](=O)[O-])[nH]c2=O)cc1` [Compound 5208, (3Z,6Z)-6-(4-(3-Dimethylaminopropoxy)benzylidene)-3-(2-nitrobenzylidene)-2,5-piperazinedione], the inhibition at 20 µM (20 μM (third part of Table 1)) amounted to 10%. Also, where the note is “100 μM (third part of Table 1)”, the inhibition at 100 µM was 32%.

In the case of `CN(C)CCOc1ccc(/C=c2\[nH]c(=O)/c(=C/c3ccccc3)[nH]c2=O)cc1OCCN(C)C` [Compound 1978, (3Z,6Z)-6-Benzylidene-3-(3,4-di-(2-dimethylaminoethoxy)benzylidene)-2,5-piperazinedione], the Degree of inhibition in PAI chromogenic substrate assay amounted to 3% (6.25 μM); 0% (12.5 μM); 11% (25 μM); 41% (50 μM); 50% (100 μM).

Turning to `CN(C)CCCOc1ccc(/C=c2\[nH]c(=O)/c(=C/c3ccc(C(=O)NCCc4ccccc4)cc3)[nH]c2=O)cc1` [Compound 5345, N-Phenethyl-4-((3Z,6Z)-6-(4-(3-Dimethylaminopropoxy)benzylidene)-2,5-dioxo-3-piperazinylidene)methylbenzamide], under “20 μM (third part of Table 1)”, the inhibition at 20 µM was found to be 39%.

In turn, `CN(C)CCOc1ccc(/C=c2\[nH]c(=O)/c(=C/c3ccccc3)[nH]c2=O)cc1OCCN(C)C` [Compound 1949, (3Z,6Z)-3-Benzylidene-6-(3,4-di-(2-dimethylaminoethoxy)benzylidene)-2,5-piperazinedione] had a Degree of inhibition in PAI chromogenic substrate assay (6.25 μM) of 1%; a Degree of inhibition in PAI chromogenic substrate assay (12.5 μM) of 1%; a Degree of inhibition in PAI chromogenic substrate assay (25 μM) of 1%; a Degree of inhibition in PAI chromogenic substrate assay (50 μM) of 1%; a Degree of inhibition in PAI chromogenic substrate assay (100 μM) of 3%.

`CN(C)CCOc1ccc(/C=c2\[nH]c(=O)/c(=C/c3c(Cl)cccc3Cl)[nH]c2=O)cc1` [Compound 1980, (3Z,6Z)-3-(2,6-Dichlorobenzylidene)-6-(4-(2-dimethylaminoethoxy)benzylidene)-2,5-piperazinedione]: the Degree of inhibition in PAI chromogenic substrate assay runs as follows: (6.25 μM) 0%; (12.5 μM) 13%; (25 μM) 51%; (50 μM) 41%; (100 μM) 66%.

For the compound `CC(C)(C)CC(=O)Oc1ccc(/C=c2\[nH]c(=O)/c(=C/c3ccccc3)[nH]c2=O)cc1` [Compound 1889, (3Z,6Z)-6-Benzylidene-3-(4-(3,3-dimethylbutanoyloxy)benzylidene)-2,5-piperazinedione], the inhibition at 6.25 µM (6.25 μM) was 0%. Further, for the setting “12.5 μM”, the inhibition at 12.5 µM came out at 3%. Also, for the setting “25 μM”, the inhibition at 25 µM came to 15%. Also, under “50 μM”, the inhibition at 50 µM worked out at 38%. For the same compound, the inhibition at 100 µM (100 μM) turned out to be 49%.

These data come from patent US5902812A, “Pharmaceutical piperazine compounds” (Xenova Limited, priority 1994, dated 1999).
